Laboratory results as given in patent US7928107B2, “Quinazolines useful as modulators of ion channels” (Vertex Pharmaceuticals Incorporated, priority 2004, dated 2011).

These compounds were tested against NaV 1.8 channel (Homo sapiens, UniProt Q9Y5Y9) (assay: Activity against NaV 1.8 channel (optical membrane potential assay)).
Format: cell-based
Method in brief: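 FRET membrane-potential assay (coumarin CC2-DMPE donor, oxonol DiSBAC2(3) acceptor plus veratridine) on VIPR; compound added with oxonol for 20–30 min before Na+ add-back stimulation. Activity from background-subtracted 460/580 nm ratio change (baseline 2–7 s, response 15–24 s) relative to tetracaine positive and drug-free negative controls.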

Sequence of NaV 1.8 channel (Q9Y5Y9 whole entry): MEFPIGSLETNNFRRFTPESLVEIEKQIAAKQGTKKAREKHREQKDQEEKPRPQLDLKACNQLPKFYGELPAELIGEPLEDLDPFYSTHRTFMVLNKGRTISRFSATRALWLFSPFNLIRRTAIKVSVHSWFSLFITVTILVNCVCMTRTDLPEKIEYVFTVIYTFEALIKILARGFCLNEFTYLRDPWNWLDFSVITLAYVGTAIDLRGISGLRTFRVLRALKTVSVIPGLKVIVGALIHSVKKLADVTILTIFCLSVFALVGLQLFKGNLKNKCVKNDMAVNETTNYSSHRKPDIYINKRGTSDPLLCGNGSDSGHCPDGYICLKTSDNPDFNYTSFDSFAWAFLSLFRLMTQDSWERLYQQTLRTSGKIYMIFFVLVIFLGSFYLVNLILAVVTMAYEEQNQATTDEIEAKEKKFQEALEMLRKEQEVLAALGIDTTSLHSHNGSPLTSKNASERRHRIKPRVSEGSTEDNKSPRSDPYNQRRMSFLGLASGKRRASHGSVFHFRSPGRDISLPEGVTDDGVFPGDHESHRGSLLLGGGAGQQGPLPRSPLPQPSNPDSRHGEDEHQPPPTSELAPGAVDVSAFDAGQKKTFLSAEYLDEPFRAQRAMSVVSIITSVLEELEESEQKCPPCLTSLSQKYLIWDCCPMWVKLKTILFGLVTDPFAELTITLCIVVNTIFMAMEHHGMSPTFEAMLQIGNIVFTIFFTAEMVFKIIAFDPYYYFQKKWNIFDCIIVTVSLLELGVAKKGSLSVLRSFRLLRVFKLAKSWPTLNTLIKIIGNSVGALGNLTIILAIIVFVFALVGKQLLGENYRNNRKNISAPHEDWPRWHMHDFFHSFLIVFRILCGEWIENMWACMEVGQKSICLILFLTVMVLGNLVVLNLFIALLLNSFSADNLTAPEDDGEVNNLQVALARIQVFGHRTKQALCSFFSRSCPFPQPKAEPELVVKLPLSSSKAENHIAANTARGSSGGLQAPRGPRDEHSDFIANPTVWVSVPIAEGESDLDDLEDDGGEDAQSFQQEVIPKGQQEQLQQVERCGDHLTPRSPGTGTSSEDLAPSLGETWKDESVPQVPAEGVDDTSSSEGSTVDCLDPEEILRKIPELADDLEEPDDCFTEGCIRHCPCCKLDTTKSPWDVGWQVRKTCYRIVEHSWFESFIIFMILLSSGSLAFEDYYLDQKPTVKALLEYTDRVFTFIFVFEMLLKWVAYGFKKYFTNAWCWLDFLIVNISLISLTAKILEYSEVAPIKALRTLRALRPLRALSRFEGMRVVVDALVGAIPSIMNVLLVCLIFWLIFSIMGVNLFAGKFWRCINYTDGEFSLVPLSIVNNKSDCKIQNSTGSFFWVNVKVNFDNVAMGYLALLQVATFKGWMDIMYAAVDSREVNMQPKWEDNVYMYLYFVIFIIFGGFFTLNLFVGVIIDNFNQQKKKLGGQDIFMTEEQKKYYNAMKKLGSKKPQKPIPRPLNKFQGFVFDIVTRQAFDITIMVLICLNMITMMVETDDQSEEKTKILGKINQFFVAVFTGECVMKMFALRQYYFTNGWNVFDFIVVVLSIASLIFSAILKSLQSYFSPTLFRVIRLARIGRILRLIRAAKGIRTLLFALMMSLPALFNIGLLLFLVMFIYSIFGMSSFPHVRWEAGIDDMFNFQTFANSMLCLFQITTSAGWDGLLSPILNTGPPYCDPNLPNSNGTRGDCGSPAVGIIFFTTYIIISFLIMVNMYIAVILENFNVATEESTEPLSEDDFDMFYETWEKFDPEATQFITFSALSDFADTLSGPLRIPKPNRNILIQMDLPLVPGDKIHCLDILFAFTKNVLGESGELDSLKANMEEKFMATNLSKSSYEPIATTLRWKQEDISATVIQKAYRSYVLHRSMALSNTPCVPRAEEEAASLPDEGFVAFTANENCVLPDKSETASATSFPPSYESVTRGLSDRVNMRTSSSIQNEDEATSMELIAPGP

IC50 [µM] | Compound
2 to 10 | O=C(C1CC1)N1CCN(c2nc(-c3ccccc3O)nc3ccc(F)cc23)CC1 [Example 192]
< 2 | Cc1ccc2c(N3CCN(C(=O)OCC(C)C)CC3)nc(-c3c(C)cccc3O)nc2c1 [Example 193]
< 2 | CCOC(=O)C(=O)N1CCN(c2nc(-c3ccccc3O)nc3cc(C)ccc23)CC1 [Example 195]
< 2 | Cc1ccc2c(N3CCN(C(=O)C(C)(C)C)CC3)nc(-c3ccccc3O)nc2c1 [Example 196]
< 2 | Cc1ccc2c(N3CCN(C(=O)OCC(C)(C)C)CC3)nc(-c3ccccc3O)nc2c1 [Example 197]
2 to 10 | Cc1ccc2c(N3CCCC(C(=O)NCc4cccnc4)C3)nc(-c3ccccc3O)nc2c1 (stereo not shown) [Example 201, 1-(2-(2-Hydroxyphenyl)-7-methylquinazolin-4-yl)-N-((pyridin-3-yl)methyl)piperidine-3-carboxamide]
> 10 | Cc1ccc2c(N3CCC[C@H](NC(=O)O[C@@H]4CCOC4)C3)nc(-c3ccccc3O)nc2c1 [Example 203, (R)-Tetrahydrofuran-3-yl (S)-1-(2-(2-hydroxyphenyl)-7-methylquinazolin-4-yl)piperidin-3-ylcarbamate]
> 10 | Cc1ccc2c(N3CCC[C@H](NC(=O)O[C@H]4CCOC4)C3)nc(-c3ccccc3O)nc2c1 [Example 204, (S)-Tetrahydrofuran-3-yl (S)-1-(2-(2-hydroxyphenyl)-7-methylquinazolin-4-yl)piperidin-3-ylcarbamate]
> 10 | Cc1ccc2c(N3CCC[C@H](NC(=O)[C@H]4CCCO4)C3)nc(-c3ccccc3O)nc2c1 [Example 205, (2R)-Tetrahydro-N—((S)-1-(2-(2-hydroxyphenyl)-7-methylquinazolin-4-yl)piperidin-3-yl)furan-2-carboxamide]
2 to 10 | Cc1ccc2c(N3CCC[C@@H](NC(=O)[C@H]4CCCO4)C3)nc(-c3ccccc3O)nc2c1 [Example 206, (2R)-Tetrahydro-N—((R)-1-(2-(2-hydroxyphenyl)-7-methylquinazolin-4-yl)piperidin-3-yl)furan-2-carboxamide]
< 2 | Cc1ccc2c(N3CCC[C@@H](NC(=O)O[C@@H]4CCOC4)C3)nc(-c3ccccc3O)nc2c1 [Example 207, (R)-Tetrahydrofuran-3-yl (R)-1-(2-(2-hydroxyphenyl)-7-methylquinazolin-4-yl)piperidin-3-ylcarbamate]
< 2 | Cc1ccc2c(N3CCC[C@@H](NC(=O)O[C@H]4CCOC4)C3)nc(-c3ccccc3O)nc2c1 [Example 208, (S)-Tetrahydrofuran-3-yl (R)-1-(2-(2-hydroxyphenyl)-7-methylquinazolin-4-yl)piperidin-3-ylcarbamate]
2 to 10 | Cc1ccc2c(N3CCCC(CNC(=O)O[C@@H]4CCOC4)C3)nc(-c3ccccc3O)nc2c1 (stereo partly drawn) [Example 210, (R)-Tetrahydrofuran-3-yl (1-(2-(2-hydroxyphenyl)-7-methylquinazolin-4-yl)piperidin-3-yl)methylcarbamate]
> 10 | Cc1ccc2c(N3CCCC(CNC(=O)O[C@H]4CCOC4)C3)nc(-c3ccccc3O)nc2c1 (stereo partly drawn) [Example 211, (S)-Tetrahydrofuran-3-yl (1-(2-(2-hydroxyphenyl)-7-methylquinazolin-4-yl)piperidin-3-yl)methylcarbamate]
> 10 | Cc1ccc2c(N3CCCC(CNC(=O)C4CC4)C3)nc(-c3ccccc3O)nc2c1 (stereo not shown) [Example 212, N—((1-(2-(2-Hydroxyphenyl)-7-methylquinazolin-4-yl)piperidin-3-yl)methyl)cyclopropanecarboxamide]
> 10 | O=C(NC1CCN(c2nc(-c3c(O)cccc3Cl)nc3ccccc23)CC1)[C@H]1CCCO1 [Example 213, (2R)—N—(1-(2-(2-Chloro-6-hydroxyphenyl)quinazolin-4-yl)piperidin-4-yl)-tetrahydrofuran-2-carboxamide]
> 10 | Cc1ccc2c(N3CCC[C@@H](CNC(=O)O[C@@H]4CCOC4)C3)nc(-c3ccccc3O)nc2c1 [Example 214, (R)-Tetrahydrofuran-3-yl ((S)-1-(2-(2-hydroxyphenyl)-7-methylquinazolin-4-yl)piperidin-3-yl)methylcarbamate]
> 10 | Cc1ccc2c(N3CCC[C@@H](CNC(=O)O[C@H]4CCOC4)C3)nc(-c3ccccc3O)nc2c1 [Example 215, (S)-Tetrahydrofuran-3-yl ((S)-1-(2-(2-hydroxyphenyl)-7-methylquinazolin-4-yl)piperidin-3-yl)methylcarbamate]
> 10 | Cc1ccc2c(N3CCC[C@H](CNC(=O)O[C@@H]4CCOC4)C3)nc(-c3ccccc3O)nc2c1 [Example 216, (R)-Tetrahydrofuran-3-yl ((R)-1-(2-(2-hydroxyphenyl)-7-methylquinazolin-4-yl)piperidin-3-yl)methylcarbamate]
> 10 | Cc1ccc2c(N3CCC[C@H](CNC(=O)O[C@H]4CCOC4)C3)nc(-c3ccccc3O)nc2c1 [Example 217, (S)-Tetrahydrofuran-3-yl ((R)-1-(2-(2-hydroxyphenyl)-7-methylquinazolin-4-yl)piperidin-3-yl)methylcarbamate]
2 to 10 | Cc1ccc2c(N3CCC(NC(=O)[C@H]4CCCO4)CC3)nc(-c3c(C)cccc3O)nc2c1 [Example 218, (2R)-Tetrahydro-N-(1-(2-(2-hydroxy-6-methylphenyl)-7-methylquinazolin-4-yl)piperidin-4-yl)furan-2-carboxamide]
< 2 | Cc1ccc2c(N3CCC(NC(=O)OCC4CCCCO4)CC3)nc(-c3ccccc3O)nc2c1 (stereo not shown) [Example 219, {1-[2-(2-Hydroxy-phenyl)-7-methyl-quinazolin-4-yl]-piperidin-4-yl}-carbamic acid tetrahydro-pyran-2-ylmethyl ester]
> 10 | Cc1ccc2c(N3CCC(NC(=O)C4CCOCC4)CC3)nc(-c3ccccc3O)nc2c1 [Example 220, Tetrahydro-N-(1-(2-(2-hydroxyphenyl)-7-methylquinazolin-4-yl)piperidin-4-yl)-2H-pyran-4-carboxamide]
> 10 | Cc1ccc2c(N3CCC(NC(=O)CC4CCOCC4)CC3)nc(-c3ccccc3O)nc2c1 [Example 221, 2-(Tetrahydro-2H-pyran-4-yl)-N-(1-(2-(2-hydroxyphenyl)-7-methylquinazolin-4-yl)piperidin-4-yl)acetamide]
> 10 | Cc1ccc2c(N3CCC(NC(=O)COC4CC(C)CCC4C(C)C)CC3)nc(-c3ccccc3O)nc2c1 (stereo not shown) [Example 222, 2-(2-Isopropyl-5-methylcyclohexyloxy)-N-(1-(2-(2-hydroxyphenyl)-7-methylquinazolin-4-yl)piperidin-4-yl)acetamide]
> 10 | Cc1ccc2c(N3CCC(NC(=O)CCc4ccccn4)CC3)nc(-c3ccccc3O)nc2c1 [Example 223, N-(1-(2-(2-Hydroxyphenyl)-7-methylquinazolin-4-yl)piperidin-4-yl)-3-(pyridin-2-yl)propanamide]
> 10 | O=C(NC1CCN(c2nc(-c3ccccc3O)nc3ccc(F)cc23)CC1)[C@H]1CCCO1 [Example 224, (2R)—N-(1-(6-Fluoro-2-(2-hydroxyphenyl)quinazolin-4-yl)piperidin-4-yl)-tetrahydrofuran-2-carboxamide]
> 10 | Cc1ccc2c(N3CCC(NC(=O)CCc4cccnc4)CC3)nc(-c3ccccc3O)nc2c1 [Example 225, N-{1-[2-(2-Hydroxy-phenyl)-7-methyl-quinazolin-4-yl]-piperidin-4-yl}-3-pyridin-3-yl-propionamide]
